The record followed here is patent publication US20090170762A1, “Treatment of Diabetes Related Obesity” (UUTech Limited, priority 2005, published 2009).

Ends that are not written are not given here.

Assay [1] concerns BRIN-BD11 cells. Briefly: Insulin secretion from BRIN-BD11 cells. Type of assay: cell-based. As for the experimental part:
Tissue Culture. Chinese Hamster Lung (CHL) fibroblast cells stably transfected with the human GIP-R were cultured in DMEM tissue culture medium containing 10%. (v/v) fetal bovine serum, 1% (v/v) antibiotics (100 U/ml penicillin, 0.1 mg/ml streptomycin) (all from Gibco, Paisley, Strathclyde, Scotland). BRIN-BD11 cells were cultured in RPMI-1640 tissue culture medium containing 10% (v/v) fetal bovine serum, 1% (v/v) antibiotics (100 U/ml penicillin, 0.1 mg/ml streptomycin) and 11.1 mm glucose. The origin and secretory characteristics of these cells have been described in detail previously (McClenaghan, N. H. et al., 1996, Diabetes 45:1132-1140). The cells were maintained in sterile tissue culture flasks (Corning Glass Works, Sunderland, UK) at 37° C. in an atmosphere of 5% CO2 and 95% air using a LEEC incubator (Laboratory Technical Engineering, Nottingham, UK).
Methods. Insulin release from BRIN-BD11 cells was determined by use of cell monolayers as described previously (Gault, V. A. et al. 2002, Biochem. J. 367:913-920). In brief, BRIN-BD11 cells were seeded into 24-well plates (Nunc, Roskilde, Denmark) at a density of 1.5×10^5 cells per well and allowed to attach overnight in RPMI-1640 culture medium at 37° C. Acute tests for insulin secretion were preceded by 40 minutes pre-incubation at 37° C. in 1.0 ml Krebs Ringer Bicarbonate Buffer (KRBB, 115 mm NaCl, 4.7 mm KCl, 1.28 mm CaCl2, 1.2 mM MgSO4, 1.2 mm KH2PO4, 25 mM HEPES and 10 mm NaHCO3; pH 7.4 with NaOH) supplemented with 0.1% (w/v) BSA and 1.1 mM glucose. […] After 20 minutes incubation, the buffer was removed and used for measurement of insulin by radioimmunoassay (Flatt, P. R. and Bailey, C. J., 1981, Diabetologia 5:573-577).

In assay [2] the test system is ob/ob mice. Put plainly: Acute antihyperglycaemic and insulin releasing activity with glucose and native GIP in ob/ob mice. It is filed as in vivo, mouse. The conditions noted are these: 25 nmol/kg i.p. with GIP and glucose 18 mmol/kg, vs native GIP. The method, then: (§1) Animals. Obese diabetic (ob/ob) mice derived from the colony maintained at Aston University, UK (Bailey C. J. et al., 1982, Int. J. Obes. 6:11-21) were used at 14-18 weeks of age. Animals were age-matched, divided into groups and housed individually in an air-conditioned room at 22±2° C. with a 12 hour light: 12 hour dark cycle (08:00-20:00 hr). Drinking water and a standard rodent maintenance diet (Trouw Nutrition, Cheshire, UK) were freely available. All animal experiments were carried out in accordance with the UK Animals (Scientific Procedures) Act 1986.
Biochemical analysis. Plasma glucose was assayed by an automated glucose oxidase procedure ([…]) using a Beckman Glucose Analyzer II (Beckman Instruments, Galway, Ireland). Plasma insulin was assayed by radioimmunoassay.
Methods. […] All test solutions were administered in a final volume of 5 ml/kg body weight. Blood samples were collected from the cut tip of the tail vein of conscious mice into chilled fluoride/heparin coated glucose microcentrifuge tubes (Sarstedt, Numbrecht, Germany) immediately prior to injection and at 15, 30 and 60 minutes post injection. Blood samples were immediately centrifuged using a Beckmnan microcentrifuge (Beckman Instruments, High Wycombe, Buckinghamshire, UK) for 30 seconds at 13,000×g. Plasma glucose was assayed using a Beckman Glucose Analyzer n (Beckman Instruments, High Wycombe, Buckinghamshire, UK) (Stevens, J. F., 1971, Clin. Chim. Acta 32:199-201) and plasma insulin was determined by RIA (Flatt, P. R. and Bailey, C. J., 1981, Diabetologia 5:573-577). All animal studies were carried out in accordance with the UK Animals (Scientific Procedures) Act 1986.

The test system of assay [3] is ob/ob mice. Briefly: 14 once-daily injections of GIP analogues in ob/ob mice. Type of assay: in vivo, mouse. The conditions noted are these: 14 days daily, insulin 50 U/kg. As for the experimental part:
as §1
Methods. […] Intraperitoneal glucose tolerance (18 mmol/kg body wt) and insulin sensitivity (50 U/kg body wt) tests were performed at the end of the study period. Blood samples taken from the cut tip of the tail vein of conscious mice at the times indicated in the Figures were immediately centrifuged using a Beckman microcentrifuge (Beckman Instruments, UK) for 30 seconds at 13,000×g. The resulting plasma was then aliquoted into fresh Eppendorf tubes and stored at −20° C. prior to glucose and insulin determinations.

For the sequence “YAPGTFISDYSIAMDKIHQQDFVNWLLAQKGKKNDWKHNITQ [(Pro^3)GIP]”, the “Maximal insulin response (% GIP max)” value in assay [1] (BRIN-BD11 cells, 5.6 mm glucose, 20 min) is recorded as 53 ± 5 % GIP max. Also, the “Insulin response in presence of 10^-7 M GIP (% GIP max)” value in assay [1] (BRIN-BD11 cells, 5.6 mm glucose, in presence of 10^-7 M native GIP) is 64 ± 2 % GIP max. Also, the “effect on GIP-stimulated insulin secretion” value in assay [1] (in presence of GIP (10^-7 m)) was “significantly inhibited”. In addition, the “plasma glucose and insulin profiles when administered together with native GIP” value in assay [2] is “significantly inhibited the action of GIP”. Further, the “hypoglycemic action of insulin” value in assay [3] is on record as “significantly augmented”.
